The source of these data is patent publication US20230227566A1, “AMHRII-BINDING COMPOUNDS FOR PREVENTING OR TREATING LUNG CANCERS” (GAMAMABS PHARMA, priority 2017, published 2023).

Some results are limits rather than exact numbers.

A short description of data set [1]: tolerability (body weight, clinical observations) in study XTS-1526. The method, then: Adverse effect of the different treatments was determined as: • Relative Body Weight (RBW) will be calculated for each measurement by dividing the body weight by the body weight at the start of treatment. • Individual Body weight loss percent (% BWL)=100−(BWx/BW0×100), where BWx is the BW at any day during the treatment and BW0 is the BW on the 1st day of treatment.
Mice were observed every day for physical appearance, behavior and clinical changes.
Animals were sacrificed based on the following criteria: • Body weight loss (BWL)≥20% compared to the 1st day of treatment for 48 consecutive hours (3 measurements). • General alteration of behaviour or clinical signs. • Tumor volume ≥2000 mm^3.
Mean Body weight loss percent (% BWL)=100−(mean BWx/mean BW0x 100), where BWx is the mean BW at any day during the treatment and BW0 is the mean BW on the 1st day of treatment.

A further data set concerns SC131 tumor model. The data set can be described thus: response of SC131 tumor model to standard-of-care agents. The class given is in vivo, mouse. Conditions: data obtained on swiss nude mice. An excerpt: Human tumor samples of various histological origins were obtained with informed consent from patients treated at cancer centers and established as transplantable xenografts in immunodeficient mice. The grafted samples are residual material from primary tumors or metastases obtained before or after treatment. These patient-derived xenograft (PDX) models have been established without prior in vitro culture and have been studied for histology, cytogenetics, genetic and other biological markers, and for their response to standard-of-care (SOC) therapies.
SC131 is low responder to docetaxel and to the combination cisplatin/gemcitabine, and no responder to the other agents tested (data obtained on swiss nude mice).

The test system of data set [2] is SC131 patient-derived non-small-cell lung xenograft. The data set can be described thus: antitumor efficacy study XTS-1526 in SC131 patient-derived xenograft.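 On all read-outs here: subcutaneous tumor fragments grafted in mice, tumor volume from caliper diameters (length × width²/2) taken three times weekly during treatment, each treated group compared against vehicle controls.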 The note with it: for CR (complete regression), number of mice / TFS (Tumor Free Survivor), number of mice / TS (Tumor Stabilization), number of mice / PR (partial regression), number of mice: 9 mice per group; for antitumor efficacy compared with control group 1 (in words): Mann-Whitney test vs vehicle; for TGDI (Tumor Growth Delay Index): TGD treated/TGD control, same regimens; for TS (Tumor Stabilization), number of mice: constant tumor size during at least 3 consecutive measurements; for Best T/C%: day of best T/C D16 (G6: D11); for T/C % at day 16: mean tumor volume treated/control x100, day 16; for median TGD x 5: time to reach 5x D0 tumor volume, GM102 20 mg/kg IV 2qwk, docetaxel 20 mg/kg slow IV D0, cisplatin 5 + gemcitabine 100 mg/kg IP qwk; for PR (partial regression), number of mice: tumor size lower than initial during at least 3 consecutive measurements.
From the text: Fifty-four (54) mice with a subcutaneously growing SC131 tumor (P22.1.3/0) between 62.5 and 220.5 mm^3 were allocated to treatment when the mean and median tumor volume reached 130.76 and 126.00 mm^3 respectively.
Tumors of the same passage were transplanted subcutaneously onto 3-24 mice (donor mice, passage (n−1)). When these tumors reached 700 to 2000 mm^3, donor mice were sacrificed by cervical dislocation, tumors were aseptically excised and dissected. After removing necrotic areas, tumors were cut into fragments measuring approximately 20 mm^3 and transferred in culture medium before grafting.
Eighty-nine (89) mice were anaesthetized with 100 mg/kg ketamine hydrochloride (batch 5D92—exp: 03-2017, Virbac) and 10 mg/kg xylazine (batch KP0AX9X, Bayer), and then skin was aseptized with a chlorhexidine solution, incised at the level of the interscapular region, and a 20 mm^3 tumor fragment was placed in the subcutaneous tissue. Skin was closed with clips.
Treatments were randomly attributed to boxes housing up to 5 mice and were initiated 18 days post implantation of the tumor (60% inclusion rate with staggered inclusion). The study was staggered-included with 5 mice included per group first, then 4 mice included per group 2 days later. The study was terminated following 31 days after the start of treatment.
For the additional groups 7 and 8, tumor size was higher and more heterogeneous. Animals were included 32 days post implantation.
Tumor volume was evaluated by measuring tumor diameters, with a caliper, three times a week during the treatment period. The formula TV (mm^3)=[length (mm)×width (mm)^2]/2 was used, where the length and the width are the longest and the shortest diameters of the tumor, respectively.
For the groups 1 to 6, each group initially included 9 mice. For the groups 7 and 8, each group initially included 8 mice.
Individual tumor growth delays (TGD) was calculated as the time in days required for individual tumors to reach 3- to 5-fold the initial tumor volume.
The tumor growth delay index (TGDI) was calculated as the median growth delay in the treated group divided by the median growth delay in the control group.
The percentage ratio between the mean tumor volume of a treated group (T) and the mean tumor volume of the control group (C) was calculated.
Statistical analysis was done for each measurement by Mann-Whitney non parametric comparison test. Each treated group was compared with control group.
Tumor Stabilization (TS) was defined as the number of mice presenting a constant tumor size during at least 3 consecutive measurements.
Partial tumor Regression (PR) was defined as the number of mice presenting a tumor size lower than initial tumor size during at least 3 consecutive measurements.

Data set [3] addresses T1, human Anti-Mullerian Hormone type II Receptor (AMHRII) (human, UniProt Q16671 18-573).
T1 construct: also called AMHR2; MISRII
T1 sequence: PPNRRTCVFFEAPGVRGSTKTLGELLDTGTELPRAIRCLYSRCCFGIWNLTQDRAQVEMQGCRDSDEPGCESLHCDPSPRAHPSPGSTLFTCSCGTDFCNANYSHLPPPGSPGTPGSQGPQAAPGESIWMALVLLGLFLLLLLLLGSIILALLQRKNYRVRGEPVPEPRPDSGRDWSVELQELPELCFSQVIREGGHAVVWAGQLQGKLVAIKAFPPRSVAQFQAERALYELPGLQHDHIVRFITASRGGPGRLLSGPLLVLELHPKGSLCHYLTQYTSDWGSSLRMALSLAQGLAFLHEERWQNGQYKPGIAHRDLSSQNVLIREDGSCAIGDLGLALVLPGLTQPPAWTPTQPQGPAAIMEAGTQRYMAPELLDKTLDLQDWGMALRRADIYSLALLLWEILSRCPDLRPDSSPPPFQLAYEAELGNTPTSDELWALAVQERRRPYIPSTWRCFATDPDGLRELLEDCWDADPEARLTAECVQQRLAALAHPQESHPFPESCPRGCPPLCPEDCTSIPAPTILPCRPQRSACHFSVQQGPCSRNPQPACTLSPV
The data set can be described thus: immunohistochemistry (immunoperoxidase, biotinylated antibody) on AMHR2-transfected COV434 cells.

The target in the next data set is T2, AMHRII (Homo sapiens, UniProt Q16671).
T2 sequence (Q16671 18-573): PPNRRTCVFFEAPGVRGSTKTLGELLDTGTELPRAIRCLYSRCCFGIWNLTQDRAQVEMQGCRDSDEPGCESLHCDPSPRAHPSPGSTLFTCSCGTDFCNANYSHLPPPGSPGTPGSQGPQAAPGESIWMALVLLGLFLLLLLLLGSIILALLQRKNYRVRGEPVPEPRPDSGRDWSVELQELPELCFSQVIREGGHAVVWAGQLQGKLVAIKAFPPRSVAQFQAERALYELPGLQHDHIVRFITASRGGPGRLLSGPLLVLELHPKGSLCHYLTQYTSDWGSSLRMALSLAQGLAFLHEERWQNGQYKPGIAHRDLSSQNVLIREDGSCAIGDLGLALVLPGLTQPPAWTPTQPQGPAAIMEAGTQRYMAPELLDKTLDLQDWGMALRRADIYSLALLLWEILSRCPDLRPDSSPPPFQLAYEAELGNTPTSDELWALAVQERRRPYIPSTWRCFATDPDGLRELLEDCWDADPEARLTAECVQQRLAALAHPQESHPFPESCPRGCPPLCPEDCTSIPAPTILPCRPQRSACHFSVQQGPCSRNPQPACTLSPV
In words: binding of 3C23K antibody to AMHRII (Kd).

Data set [4] deals with LXFE2226 squamous non-small cell lung cancer model tumor xenografts. In words: antitumor efficacy in LXFE2226 tumor xenografts. It counts as in vivo, mouse. An excerpt:
Tumor fragments were obtained from xenografts in serial passage in nude mice. After removal from donor mice, tumors were cut into fragments (3-4 mm edge length) and placed in PBS containing 10% penicillin/streptomycin. Recipient animals were anesthetized by inhalation of isoflurane and received unilateral or bilateral tumor implants subcutaneously in the flank.
LXFE2226 squamous non-small cell lung cancer model tumor xenografts were implanted subcutaneously with one tumor per mouse (NMRI-Foxn1^nu from Charles River). The experiment consisted of two groups of mice from which three of them were euthanized on day 15 for detecting membranous AMHRII expression by flow cytometry. The first group was a vehicle control group and the second group received the investigational antibody GM102, which was administered intraperitoneally (i.p.) twice weekly at a dose level of 20 mg/kg.
Antitumor efficacy was evaluated as minimum T/C value by comparison of group median relative tumor volumes (RTVs) on the days where the optimal efficacy was reached. The experiment was terminated on day 43 after a two-week dosing-free observation period.

In data set [5] the test system is AMHR2-transfected human tumor cell lines. The note with it: cited from earlier work.

Usually Kd stands for the constant that tells how readily two partners part at equilibrium. A higher Kd goes with weaker binding.

For `CC(=O)O[C@@]12CO[C@@H]1C[C@H](O)[C@@]1(C)C(=O)[C@H](O)C3=C(C)[C@@H](OC(=O)[C@H](O)[C@@H](NC(=O)OC(C)(C)C)c4ccccc4)C[C@@](O)([C@@H](OC(=O)c4ccccc4)[C@H]21)C3(C)C` [Docetaxel], the “mice that had to be sacrificed before the end of the study” value in data set [1] (despite DietGel, 9 mice per group (groups 7, 8: 8)) turned out to be 4. For the same molecule, in data set [1] (mouse, in vivo), the “maximum individual body weight loss” value is reported as 23.8% and the “maximum mean body weight loss” value is 17.0%. Moreover, the “response of SC131 to the agent (in words)” value with SC131 tumor model was “low responder”. For the same molecule, in data set [2], the “CR (complete regression), number of mice” value was found to be 0; the “TFS (Tumor Free Survivor), number of mice” value was determined as 0; the “antitumor efficacy compared with control group 1 (in words)” value is “strong and statistically significant”; the “TGDI (Tumor Growth Delay Index)” value is listed as greater than 2.71. Also, in data set [2], the “TS (Tumor Stabilization), number of mice” value was found to be 7; the “Best T/C%” value was 11.00%; the “T/C % at day 16” value is 11.00%; the “median TGD x 5” value was greater than 28 days. The “PR (partial regression), number of mice” value in data set [2] was 2. Also, in data set [2] (listed as docetaxel), the “TGDI (Tumor Growth Delay Index)” value is greater than 2.71; the “TS (Tumor Stabilization), number of mice” value was 7/9; the “Best T/C%” value amounted to 11.00%; the “PR (partial regression), number of mice” value was 2/9. For the same molecule, in data set [2] (day 4), the “Mann-Whitney analysis on tumor volume vs vehicle, day 4” value is “** (P < 0.01)”. Further, the “Mann-Whitney analysis on tumor volume vs vehicle, day 7” value in data set [2] (day 7) is given as “*** (P < 0.001)”. In data set [2] (day 9), the “Mann-Whitney analysis on tumor volume vs vehicle, day 9” value is on record as “*** (P < 0.001)”. For the same molecule, in data set [2] (day 11), the “Mann-Whitney analysis on tumor volume vs vehicle, day 11” value is “*** (P < 0.001)”. Further, the “Mann-Whitney analysis on tumor volume vs vehicle, day 14” value in data set [2] (day 14) was “*** (P < 0.001)”. For the same molecule, in data set [2] (day 16), the “Mann-Whitney analysis on tumor volume vs vehicle, day 16” value was “*** (P < 0.001)”.

B1: 3C23K anti-AMHRII monoclonal antibody (antibody, human IgG1, kappa, V domains shown)
VH: QVRLVQSGAEVKKPGASVKVSCKASGYTFTSYHIHWVRQAPGQRLEWMGWIYPGDDSTKYSQKFQGRVTITRDTSASTAYMELSSLRSEDTAVYYCTRGDRFAYWGQGTLVTVSS
VL: DIQMTQSPSTLSASVGDRVTITCRASSSVRYIAWYQQKPGKAPKLLTYPTSSLKSGVPSRFSGSGSGTEFTLTISSLQPDDFATYYCLQWSSYPWTFGGGTKVEIKR
notes: Humanized mAb; GM102 is described as a low fucose form; also called GM102; 3C23K-AF
Turning to B1, in data set [3], the binding result is recorded as “binds”.

B2: GM102: humanized anti-AMHRII (AMHR2) monoclonal antibody, low fucose; VH SEQ ID NO 19, VL SEQ ID NO 36 (antibody, V domains shown)
VH: QVRLVQSGAEVKKPGASVKVSCKASGYTFTSYHIHWVRQAPGQRLEWMGWIYPGDDSTKYSQKFQGRVTITRDTSASTAYMELSSLRSEDTAVYYCTRGDRFAYWGQGTLVTVSS
VL: DIQMTQSPSTLSASVGDRVTITCRASSSVRYIAWYQQKPGKAPKLLTYPTSSLKSGVPSRFSGSGSGTEFTLTISSLQPDDFATYYCLQWSSYPWTFGGGTKVEIK
modifications: low fucose; Synthetic 3C23K/3C23; Synthetic 3C23K
In the data set with AMHRII, B2 showed an equilibrium dissociation constant (Kd) of 0.0553 nM. Further, the mice found dead entry in data set [1] (9 mice per group (groups 7, 8: 8)) is listed as “Mouse #27 was found dead on day 27”. Besides, in data set [1] (SC131-bearing nude mice (cachectic tumor), day of maximum differs per group), the “maximum mean body weight loss” value stood at 9.8%. In addition, the “maximum individual body weight loss” value in data set [1] (SC131-bearing nude mice, day of maximum differs per group) is listed as 16.8%. Moreover, the “tolerability (in words)” value in data set [1] (mouse, in vivo, iv, 20 mg/kg) is recorded as “well tolerated”. In data set [4] (Day 28, p<0.001), the “tumor volume at Day 28 vs vehicle (in words)” value is “drastically reduction of the tumor volume”. Also, the “anti-tumor activity (in words)” value in data set [4] (GM102 20 mg/kg i.p. twice weekly, NMRI-Foxn1nu mice) is “strong anti-tumor activity”. Besides, the “efficacy in combination with carboplatin and paclitaxel (in words)” value in data set [5] (Jacquet A., Cancer Res, 2012) is on record as “synergistic”. Further, in data set [5] (mouse, in vivo), the “antitumor efficacy (in words)” value is listed as “display antitumor efficacy”. Further, in data set [2], the “CR (complete regression), number of mice” value is on record as 0; the “TFS (Tumor Free Survivor), number of mice” value is 0; the “antitumor efficacy compared with control group 1 (in words)” value is “did not demonstrate any antitumor efficacy”; the “TGDI (Tumor Growth Delay Index)” value came to 1.33. For the same molecule, in data set [2], the “TS (Tumor Stabilization), number of mice” value stood at 0; the “Best T/C%” value worked out at 74.68%; the “T/C % at day 16” value turned out to be 74.68%; the “median TGD x 5” value is listed as 13.70 days. In data set [2], the “PR (partial regression), number of mice” value turned out to be 0. This molecule also had a tumor growth inhibition in data set [2] (GM102 alone, did not reach statistical significance) of 25%.
